Measurements published in patent US11976038B1 (priority 2023, dated 2024).
Like-named read-outs stand apart in the source and are kept apart here.

What was measured:
[1] = type: physicochemical
Protocol: An appropriate amount of pure product of Embodiment 1 (about 50 mg) was weighed into a small aluminium box, and the weight of the sample was recorded after equilibration. For a thermogravimetric equipment, the temperature was selected to be 0° C. to 500° C., the heating rate to be 20° C./min, and the nitrogen flow rate to be 100 mL/min, and a thermogravimetric change curve was recorded. The initial reaction temperature was 300° C. according to a baseline extrapolation method. […] Curves A and B in FIG. 2 represent the rate of mass change and the mass change with increasing temperature, respectively.

[2] = corn oil, 200 ppm; for Acid value / Peroxide value / Conjugated diene value: 60° C., after 6 days; for Conjugated diene value: absorbance 232 nm
[3] = corn oil, 200 ppm, oxidation induction time at 20° C. calculated from 100-130° C.
[4] = background statement; cited from earlier work
[5] = background statement; cited from earlier work; remark: listed apart in the source
[6] = listed as Pure product of Comparative Example 5
[7] = listed as Pure product of Comparative Example 4

Compound: resveratrol nervonic acid ester [Embodiment 1]
- initial reaction temperature (thermal stability temperature) [1]: 300 °C
- antioxidant activity (DPPH radical scavenging activity) (10 mg in 1 mL 80% methanol, 30 min dark, 517 nm): 90.00%
- antioxidant activity relative to resveratrol (DPPH, ratio to resveratrol): 1.03 times
- acid value versus resveratrol and blank control (FIG. 4) ([2]; 60° C., 0, 1, 3, 6 days): basically lower than those of resveratrol and blank control
- conjugated diene value versus resveratrol and blank control (FIG. 5) ([2]; 60° C., 0, 1, 3, 6 days): basically lower than those of resveratrol and blank control
- peroxide value versus resveratrol and blank control (FIG. 3) ([2]; 60° C., 0, 1, 3, 6 days): basically lower than those of resveratrol and blank control
- Acid value [2]: 0.55 mgKOH/g
- Peroxide value [2]: 26.5 meq/kg
- Conjugated diene value [2]: 3.33
- Shelf life [3]: 78.2 days

Compound: Oc1ccc(C=Cc2cc(O)cc(O)c2)cc1 [Resveratrol, 3, 4′, 5-trihydroxystilbene]
- initial reaction temperature (thermal stability temperature) [1]: 290 °C
- solubility in oil [4]: 0.98 µg/g
- oral bioavailability [5]: < 1%

Compound: resveratrol conjugated linoleate [Comparative Example 5]
- Acid value [2]: 0.60 mgKOH/g
- Conjugated diene value [2, 6]: 3.65
- Peroxide value [2, 6]: 27.5 meq/kg
- Shelf life [3, 6]: 71.3 days

Compound: resveratrol conjugated linoleate [Comparative Example 4]
- Conjugated diene value [2, 7]: 3.60
- Peroxide value [2, 7]: 27 meq/kg
- Shelf life [3, 7]: 71.4 days
